Experimental data published in patent US6610677B2, “Pyrazole compounds useful as protein kinase inhibitors” (Vertex Pharmaceuticals Incorporated, priority 2000, dated 2003).

Key:
GSK-3β (AA 1-420) = target: T1, GSK-3β (AA 1-420) (Homo sapiens, UniProt P49841); assay: Ki determination for the inhibition of GSK-3 (coupled enzyme system); format: biochemical; settings: 20 μM ATP, 300 μM peptide, 20 nM GSK-3β, 30° C
T1 construct: GSK-3β (AA 1-420)
In short: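 Ki values come from reaction rates over 10 min at 30 °C as a function of inhibitor concentration (12-point titration, 0.002–30 μM, 10 min preincubation). GSK-3β (AA 1-420, 20 nM) phosphorylated 300 μM primed peptide with 20 μM ATP; ADP formation followed by coupled NADH oxidation, pH 7.5.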

Aurora-2 = target: T2, Aurora-2 (Homo sapiens, UniProt O14965); assay: Ki determination for the inhibition of Aurora-2 (coupled enzyme assay); format: biochemical; settings: 70 nM Aurora-2, peptide LRRASLG, 30° C
T2 sequence (O14965 1-403): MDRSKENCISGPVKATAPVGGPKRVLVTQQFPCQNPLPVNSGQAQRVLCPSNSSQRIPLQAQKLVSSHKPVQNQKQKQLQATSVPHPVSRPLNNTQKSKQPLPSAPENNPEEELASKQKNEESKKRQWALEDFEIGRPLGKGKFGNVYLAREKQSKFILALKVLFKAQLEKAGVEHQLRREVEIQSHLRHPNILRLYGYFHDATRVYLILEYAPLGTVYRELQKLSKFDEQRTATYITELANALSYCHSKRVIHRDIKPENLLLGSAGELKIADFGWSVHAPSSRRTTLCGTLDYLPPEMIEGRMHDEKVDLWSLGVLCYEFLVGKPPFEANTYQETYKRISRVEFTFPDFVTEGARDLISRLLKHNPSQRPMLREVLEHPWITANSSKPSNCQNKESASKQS
Method: Compounds were screened in the following manner for their ability to inhibit Aurora-2 using a standard coupled enzyme assay (Fox et al (1998) Protein Sci 7, 2249).
To an assay stock buffer solution containing 0.1M HEPES 7.5, 10 mM MgCl2, 1 mM DTT, 25 mM NaCl, 2.5 mM phosphoenolpyruvate, […], 30 mg/ml pyruvate kinase, 10 mg/ml lactate dehydrogenase, […], and 800 μM peptide (LRRASLG, American Peptide, Sunnyvale, Calif.) was added a DMSO solution of a compound of the present invention to a final concentration of 30 μM. The resulting mixture was incubated at 30° C. for 10 min. The reaction was initiated by the addition of 10 μL of Aurora-2 stock solution to give a final concentration of 70 nM in the assay. The rates of reaction were obtained by monitoring absorbance at 340 nm over a 5 minute read time at 30° C. using a BioRad Ultramark plate reader (Hercules, Calif.). The Ki values were determined from the rate data as a function of inhibitor concentration.

T1 sequence (P49841 whole entry, the tested form may be a part): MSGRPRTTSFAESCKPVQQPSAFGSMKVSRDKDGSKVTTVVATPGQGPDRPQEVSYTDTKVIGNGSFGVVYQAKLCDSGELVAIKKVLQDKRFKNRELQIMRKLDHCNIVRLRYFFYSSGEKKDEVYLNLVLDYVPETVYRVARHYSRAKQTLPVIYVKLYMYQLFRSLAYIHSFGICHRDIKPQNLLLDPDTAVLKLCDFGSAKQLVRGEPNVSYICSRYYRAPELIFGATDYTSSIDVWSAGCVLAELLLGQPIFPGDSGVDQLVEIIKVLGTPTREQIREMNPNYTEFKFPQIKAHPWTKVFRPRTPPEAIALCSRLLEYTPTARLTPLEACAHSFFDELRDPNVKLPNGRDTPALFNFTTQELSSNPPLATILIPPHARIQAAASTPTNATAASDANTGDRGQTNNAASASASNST

Compound | Ki (GSK-3β (AA 1-420)) [µM] | Ki (Aurora-2) [µM]
FC(F)(F)c1cccc(-c2nc(Nc3[nH]nc4ccccc34)c3ccccc3n2)c1 [III-132, (1H-Indazol-3-yl)-[2-(3-trifluoromethyl-phenyl)-quinazolin-4-yl]-amine] | 0.1 to 1 | 1 to 20
Fc1cc(F)c2n[nH]c(Nc3nc(-c4ccccc4)nc4c3CCCC4)c2c1 [III-127, (5,7-Difluoro-1H-indazol-3-yl)-(2-phenyl-5,6,7,8-tetrahydroquinazolin-4-yl)-amine] | < 0.1 | 1 to 20
Fc1ccc2[nH]nc(Nc3nc(-c4ccccc4Cl)nc4ccccc34)c2c1 [II-75, [2-(2-Chloro-phenyl)-quinazolin-4-yl]-(5-fluoro-1H-indazol-3-yl)-amine] | < 0.1 | 1 to 20
Cc1cc(Nc2nc(-c3cc(F)cc(F)c3)nc3ccccc23)[nH]n1 [III-51, [2-(3,5-Difluorophenyl)-quinazolin-4-yl]-(5-methyl-2H-pyrazol-3-yl)-amine] | < 0.1 | < 0.1
Cc1cc(Nc2nc(-c3ccncc3)nc3ccccc23)n[nH]1 [III-9, (5-Methyl-2H-pyrazol-3-yl)-(2-pyridin-4-yl-quinazolin-4-yl)-amine] | < 0.1 | < 0.1
N#Cc1ccccc1-c1nc(Nc2n[nH]c3ccccc23)c2ccccc2n1 [II-78, [2-(2-cyano-phenyl)-quinazolin-4-yl]-(1H-indazol-3-yl)-amine] | < 0.1 | 1 to 20
Cc1ccccc1-c1nc(Nc2n[nH]c3ccccc23)c2ccccc2n1 [II-67, (1H-indazol-3-yl)-[2-(2-methyl-phenyl)-quinazolin-4-yl]-amine] | < 0.1 | 1 to 20
COc1cccc2c(Nc3n[nH]c4ccc(F)cc34)nc(-c3ccccc3C(F)(F)F)nc12 [II-91, (5-Fluoro-1H-indazol-3-yl)-[8-methoxy-2-(2-trifluoromethyl-phenyl)-quinazolin-4-yl]-amine] | < 0.1 | 1 to 20
Cc1ccc2[nH]nc(Nc3nc(-c4ccccc4C(F)(F)F)nc4ccccc34)c2c1 [II-61, (5-Methyl-1H-indazol-3-yl)-[2-(2-trifluoromethyl-phenyl)-quinazolin-4-yl]-amine] | < 0.1 | 1 to 20
FC(F)(F)c1ccccc1-c1nc(Nc2n[nH]c3ccccc23)cc(-c2ccccc2)n1 [II-20, (1H-Indazol-3-yl)-[6-phenyl-2-(2-trifluoromethyl-phenyl)-pyrimidin-4-yl]-amine] | < 0.1 | 0.1 to 1
Fc1ccc2[nH]nc(Nc3nc(-c4ccccc4C(F)(F)F)nc4c3CCC4)c2c1 [II-107, (5-Fluoro-1H-indazol-3-yl)-[2-(2-trifluoromethyl-phenyl)-6,7-dihydro-5H-cyclopentapyrimidin-4-yl]-amine] | < 0.1 | 1 to 20
CC1CCN(c2nc(Nc3cc(C4CC4)n[nH]3)c3nccc-3[nH]2)CC1 [IV-34, (5-Cyclopropyl-2H-pyrazol-3-yl)-[2-(4-methylpiperidin-1-yl)-pyrrolo[3,2-d]pyrimidin-4-yl]-amine] | < 0.1 | < 0.1
Cc1cc(Nc2nc(-c3ccc(F)c(Cl)c3)nc3ccccc23)[nH]n1 [III-52, [2-(3-Chloro-4-fluorophenyl)-quinazolin-4-yl]-(5-methyl-2H-pyrazol-3-yl)-amine] | < 0.1 | < 0.1
Fc1ccc2n[nH]c(Nc3nc(-c4ccccc4)nc4ccccc34)c2c1 [III-130, (5-Fluoro-1H-indazol-3-yl)-(2-phenyl-quinazolin-4-yl)-amine] | < 0.1 | 0.1 to 1
Cc1cc(Nc2nc(-c3ccccc3C(F)(F)F)nc3ccccc23)n[nH]1 [II-41, (5-Methyl-2H-pyrazol-3-yl)-[2-(2-trifluoromethylphenyl)-quinazolin-4-yl]-amine] | < 0.1 | < 0.1
Cc1cc(Nc2nc(-c3ccncc3)nc3cc(Cl)ccc23)[nH]n1 [III-28, (7-Chloro-2-pyridin-4-yl-quinazolin-4-yl)-(5-methyl-2H-pyrazol-3-yl)-amine] | 0.1 to 1 | 0.1 to 1
c1ccc2c(Nc3n[nH]c4ccccc34)nc(-n3ccnc3)nc2c1 [III-141, (2-imidazol-1-yl-quinazolin-4-yl)-(1H-indazol-3-yl)-amine] | < 0.1 | 1 to 20

Compound | Ki (GSK-3β (AA 1-420)) [µM] | Ki (Aurora-2) [µM]
FC(F)(F)c1ccccc1-c1nc(Nc2n[nH]c3cc(Cl)ccc23)c2ccccc2n1 [II-80, (6-Chloro-1H-indazol-3-yl)-[2-(2-trifluoromethyl-phenyl)-quinazolin-4-yl]-amine] | < 0.1 | 1 to 20
COc1cccc2c(Nc3n[nH]c4ccccc34)nc(-c3ccccc3C(F)(F)F)nc12 [II-90, (1H-Indazol-3-yl)-[8-methoxy-2-(2-trifluoromethyl-phenyl)-quinazolin-4-yl]-amine] | < 0.1 | 1 to 20
Fc1cccc2c(Nc3nc(-c4ccccc4)nc4ccccc34)[nH]nc12 [III-129, (7-Fluoro-1H-indazol-3-yl)-(2-phenyl-quinazolin-4-yl)-amine] | 0.1 to 1 | 1 to 20
Cc1cc(Nc2nc(-c3cccnc3)nc3ccccc23)[nH]n1 [III-56, (5-Methyl-2H-pyrazol-3-yl)-(2-pyridin-3-yl-quinazolin-4-yl)-amine] | < 0.1 | < 0.1
CCc1ccccc1-c1nc(Nc2cc(C)[nH]n2)c2ccccc2n1 [II-42, [2-(2-Ethylphenyl)-quinazolin-4-yl]-(5-Methyl-2H-pyrazol-3-yl)-amine] | < 0.1 | 0.1 to 1
Fc1cc(F)c2[nH]nc(Nc3nc(-c4ccccc4Cl)nc4ccccc34)c2c1 [II-76, [2-(2-Chloro-phenyl)-quinazolin-4-yl]-(5,7-difluoro-1H-indazol-3-yl)-amine] | < 0.1 | 1 to 20
FC(F)(F)c1ccc2[nH]nc(Nc3nc(-c4ccccc4C(F)(F)F)nc4ccccc34)c2c1 [II-64, (5-Trifluoromethyl-1H-indazol-3-yl)-[2-(2-trifluoromethyl-phenyl)-quinazolin-4-yl]-amine] | < 0.1 | 0.1 to 1
c1ccc(-c2nc(Nc3n[nH]c4ccccc34)c3ccccc3n2)cc1 [III-1, (1H-Indazol-3-yl)-(2-phenyl-quinazolin-4-yl)-amine] | 0.1 to 1 | 0.1 to 1
FC(F)(F)c1ccccc1-c1nc(Nc2n[nH]c3ccccc23)cc(-c2ccncc2)n1 [II-21, (1H-Indazol-3-yl)-[6-(pyridin-4-yl)-2-(2-trifluoromethyl-phenyl)-pyrimidin-4-yl]-amine] | < 0.1 | 1 to 20
Fc1ccc2[nH]nc(Nc3nc(-c4ccccc4C(F)(F)F)nc4ccccc34)c2c1 [II-59, (5-Fluoro-1H-indazol-3-yl)-[2-(2-trifluoromethyl-phenyl)-quinazolin-4-yl]-amine] | < 0.1 | 1 to 20
FC(F)(F)c1ccccc1-c1cc2ccccc2c(Nc2n[nH]c3ccccc23)n1 [Compound V-2, (1H-Indazol-3-yl)-[3-(2-trifluoromethyl-phenyl)-isoquinoline-1-yl]-amine] | 0.1 to 1 | 1 to 20
Nc1ccc(-c2nc(Nc3n[nH]c4c(F)cc(F)cc34)c3ccccc3n2)c(Cl)c1 [II-96, [2-(4-Amino-2-chloro-phenyl)-quinazolin-4-yl]-(5,7-Difluoro-1H-indazol-3-yl)-amine] | < 0.1 | 1 to 20
Cc1cc(Nc2nc(-c3cccc(C(F)(F)F)c3)nc3ccccc23)[nH]n1 [III-53, (5-Methyl-2H-pyrazol-3-yl)-[2-(3-trifluoromethylphenyl)-quinazolin-4-yl]-amine] | < 0.1 | < 0.1
Cc1cc(Nc2nc(-c3cccc(C)c3C)nc3ccccc23)n[nH]1 [II-40, [2-(2,3-Dimethylphenyl)-quinazolin-4-yl]-(5-methyl-2H-pyrazol-3-yl)-amine] | < 0.1 | < 0.1
Cc1cc(Nc2cc(-c3ccccc3)n[nH]2)nc(-c2ccccc2OC(F)(F)F)n1 [II-103, [6-Methyl-2-(2-trifluoromethoxy-phenyl)-pyrimidin-4-yl]-(5-phenyl-2H-pyrazol-3-yl)-amine] | 0.1 to 1 | 1 to 20
Cc1cc(Nc2cc(-c3ccco3)n[nH]2)nc(-c2ccccc2OC(F)(F)F)n1 [II-104, (5-Furan-2-yl-2H-pyrazol-3-yl)-[6-methyl-2-(2-trifluoromethoxy-phenyl)-pyrimidin-4-yl]-amine] | 0.1 to 1 | 1 to 20
